PubChem BioAssay (NCI)
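Following 48 hours of exposure in 96-well plates, responses at five concentrations were used to interpolate endpoints linearly. Here, GI50 denotes the concentration required for 50% inhibition of growth. TGI: total growth inhibition.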

Legend:
Assay in all cases: NCI-60 cell line screen, 48 h
K-562 leukemia = system: K-562 leukemia
SW-620 colon = system: SW-620 colon
EKVX NSCLC = system: EKVX NSCLC
UACC-257 melanoma = system: UACC-257 melanoma
M14 melanoma = system: M14 melanoma
PC-3 prostate = system: PC-3 prostate
HCT-15 colon = system: HCT-15 colon
UO-31 renal = system: UO-31 renal
SF-295 CNS = system: SF-295 CNS
U251 CNS = system: U251 CNS
SK-MEL-2 melanoma = system: SK-MEL-2 melanoma
SNB-75 CNS = system: SNB-75 CNS
SK-OV-3 ovarian = system: SK-OV-3 ovarian
T-47D breast = system: T-47D breast
RPMI-8226 leukemia = system: RPMI-8226 leukemia
HL-60(TB) leukemia = system: HL-60(TB) leukemia
UACC-62 melanoma = system: UACC-62 melanoma
A498 renal = system: A498 renal
MALME-3M melanoma = system: MALME-3M melanoma
DU-145 prostate = system: DU-145 prostate
MDA-MB-435 = system: MDA-MB-435
786-0 renal = system: 786-0 renal
CCRF-CEM leukemia = system: CCRF-CEM leukemia
OVCAR-3 ovarian = system: OVCAR-3 ovarian
CAKI-1 renal = system: CAKI-1 renal
HCT-116 colon = system: HCT-116 colon
IGROV1 ovarian = system: IGROV1 ovarian
HOP-92 NSCLC = system: HOP-92 NSCLC
MDA-MB-231 breast = system: MDA-MB-231 breast
SK-MEL-28 melanoma = system: SK-MEL-28 melanoma
SN12C renal = system: SN12C renal
SF-268 CNS = system: SF-268 CNS
MCF7 breast = system: MCF7 breast
NCI-H522 lung = system: NCI-H522 lung
KM12 colon = system: KM12 colon
HT29 colon = system: HT29 colon
SNB-19 CNS = system: SNB-19 CNS
NCI-H23 lung = system: NCI-H23 lung
HOP-62 NSCLC = system: HOP-62 NSCLC
NCI-H226 lung = system: NCI-H226 lung
COLO 205 colon = system: COLO 205 colon
BT-549 breast = system: BT-549 breast
MOLT-4 leukemia = system: MOLT-4 leukemia
TK-10 renal = system: TK-10 renal
MDA-MB-468 breast = system: MDA-MB-468 breast
OVCAR-4 ovarian = system: OVCAR-4 ovarian
SK-MEL-5 melanoma = system: SK-MEL-5 melanoma
SR leukemia = system: SR leukemia
HCC-2998 colon = system: HCC-2998 colon
SF-539 CNS = system: SF-539 CNS
ACHN renal = system: ACHN renal
OVCAR-8 ovarian = system: OVCAR-8 ovarian
HS 578T breast = system: HS 578T breast
LOX IMVI melanoma = system: LOX IMVI melanoma
OVCAR-5 ovarian = system: OVCAR-5 ovarian
A549 NSCLC = system: A549 NSCLC
NCI-H460 lung = system: NCI-H460 lung
RXF 393 renal = system: RXF 393 renal

## COc1ccc([C@H]2C(C(=O)c3ccc(Cl)cc3)C3(N[C@@H]2c2ccccc2)C(=O)Nc2ccc(Br)cc23)cc1 (stereo partly specified)
K-562 leukemia
  GI50: 15.8 µM
  TGI: > 53.3 µM
SW-620 colon
  GI50: 13.9 µM
  TGI: 44.8 µM
EKVX NSCLC
  GI50: 12.4 µM
  TGI: 42.6 µM
UACC-257 melanoma
  GI50: 10.5 µM
  TGI: 27.9 µM
M14 melanoma
  GI50: 9.18 µM
  TGI: 19.1 µM
PC-3 prostate
  GI50: 12.2 µM
  TGI: 31.5 µM
HCT-15 colon
  GI50: 9.91 µM
  TGI: 20.3 µM
UO-31 renal
  GI50: 10.7 µM
  TGI: 29.3 µM
SF-295 CNS
  GI50: 9.65 µM
  TGI: 20.2 µM
U251 CNS
  GI50: 9.18 µM
  TGI: 18 µM
SK-MEL-2 melanoma
  GI50: 8.37 µM
  TGI: 16 µM
SNB-75 CNS
  GI50: 8.73 µM
  TGI: 35.4 µM
SK-OV-3 ovarian
  GI50: 12.3 µM
  TGI: 36.8 µM
T-47D breast
  GI50: 11.5 µM
  TGI: 33.4 µM
RPMI-8226 leukemia
  GI50: 14.3 µM
  TGI: 41 µM
HL-60(TB) leukemia
  GI50: 11.3 µM
  TGI: 29.8 µM
UACC-62 melanoma
  GI50: 8.75 µM
  TGI: 16.7 µM
A498 renal
  GI50: 10.5 µM
  TGI: 24.8 µM
MALME-3M melanoma
  GI50: 7.69 µM
  TGI: 15.1 µM
DU-145 prostate
  GI50: 13.5 µM
  TGI: 36.7 µM
MDA-MB-435
  GI50: 10.2 µM
  TGI: 20.4 µM
786-0 renal
  GI50: 12.4 µM
  TGI: 32.3 µM
CCRF-CEM leukemia
  GI50: 14.4 µM
  TGI: 40.5 µM
OVCAR-3 ovarian
  GI50: 10.5 µM
  TGI: 23.3 µM
CAKI-1 renal
  GI50: 13.1 µM
  TGI: 42.4 µM
HCT-116 colon
  GI50: 9.7 µM
  TGI: 18.5 µM
IGROV1 ovarian
  GI50: 11 µM
  TGI: 25.9 µM
HOP-92 NSCLC
  GI50: 8.27 µM
  TGI: 19.7 µM
MDA-MB-231 breast
  GI50: 8.88 µM
  TGI: 16.5 µM
SK-MEL-28 melanoma
  GI50: 8.83 µM
  TGI: 16.8 µM
SN12C renal
  GI50: 8.53 µM
  TGI: 16 µM
SF-268 CNS
  GI50: 14.4 µM
  TGI: 49.7 µM
MCF7 breast
  GI50: 11.5 µM
  TGI: 34.9 µM
NCI-H522 lung
  GI50: 8.97 µM
  TGI: 20.8 µM
KM12 colon
  GI50: 11.5 µM
  TGI: 25.5 µM
HT29 colon
  GI50: 9.03 µM
  TGI: 17.1 µM
SNB-19 CNS
  GI50: 15.1 µM
  TGI: > 53.3 µM
NCI-H23 lung
  GI50: 10.2 µM
  TGI: 20.8 µM
HOP-62 NSCLC
  GI50: 8.59 µM
  TGI: 16.5 µM
NCI-H226 lung
  GI50: 8.47 µM
  TGI: 16.4 µM
COLO 205 colon
  GI50: 8.35 µM
  TGI: 16 µM
BT-549 breast
  GI50: 8.66 µM
  TGI: 16.6 µM
MOLT-4 leukemia
  GI50: 14.8 µM
  TGI: 47.2 µM
TK-10 renal
  GI50: 10.8 µM
  TGI: 28.7 µM
MDA-MB-468 breast
  GI50: 10.2 µM
  TGI: 27 µM
OVCAR-4 ovarian
  GI50: 13 µM
  TGI: 42.4 µM
SK-MEL-5 melanoma
  GI50: 8.65 µM
  TGI: 16.5 µM
SR leukemia
  GI50: 12.8 µM
  TGI: 35.8 µM
HCC-2998 colon
  GI50: 8.82 µM
  TGI: 17.9 µM
SF-539 CNS
  GI50: 9.47 µM
  TGI: 19.4 µM
ACHN renal
  GI50: 13.4 µM
  TGI: 41.6 µM
OVCAR-8 ovarian
  GI50: 9.68 µM
  TGI: 20.4 µM
HS 578T breast
  GI50: 9.96 µM
  TGI: 26.6 µM
LOX IMVI melanoma
  GI50: 7.86 µM
  TGI: 15.9 µM
OVCAR-5 ovarian
  GI50: 9.8 µM
  TGI: 19.1 µM
A549 NSCLC
  GI50: 11.9 µM
  TGI: 34.2 µM
NCI-H460 lung
  GI50: 10.1 µM
  TGI: 20.9 µM
RXF 393 renal
  GI50: 7.29 µM
  TGI: 16.2 µM
